Patent US20100105651A1, “ANTAGONISTS OF SNS SODIUM CHANNELS” (priority 2005, published 2010)

Biological target: T1, human NaV1.8 (hNaV1.8) ion channel (Homo sapiens, UniProt Q9Y5Y9)
T1 construct: expressed in transfected cells
Assay: Inhibition of Human NaV1.8 stably expressed in SH-SY-5Y cells (membrane potential dye fluorescence assay)
Format: cell-based
Conditions: SH-SY-5Y cells stably expressing hNaV1.8; FLIPR membrane potential dye; 10 μM pyrethroid, 250 nM TTX; test range 100 μM-0.05 μM; read-out: hNav1.8 IC50
Procedure: Inhibition of Human NaV1.8 stably expressed in SH-SY-5Y cells
A SH-SY-5Y neuroblastoma cell line stably expressing the human NaV1.8 (hNaV1.8) ion channel was constructed. This cell line has been used to develop a medium to high throughput assay for determining the ability of test compounds to inhibit membrane depolarisation mediated via the hNaV1.8 channel.
SH-SY-5Y hNaV1.8 are grown in adherent monolayer culture using 50:50 Ham's F-12/EMEM tissue culture medium supplemented with 15% (v/v) foetal bovine serum; 2 mM L-glutamine, 1% NEAA and 600 μg·ml^−1 Geneticin sulphate. Cells are removed from the tissue culture flask using trypsin/EDTA and re-plated into black walled, clear bottom 96-well assay plates at 50,000 cells·well^−1 24 hours prior to assay.
On the day of assay the cell assay plates are washed to remove cell culture medium using a sodium free assay buffer (145 mM tetramethyl ammonium chloride; 2 mM calcium chloride; 0.8 mM magnesium chloride hexahydrate; 10 mM HEPES; 10 mM glucose; 5 mM potassium chloride, pH 7.4). Fluorescent membrane potential dye solution (FLIPR™ membrane potential dye, Molecular Devices Corporation), containing 10 μM of a pyrethroid to prevent channel inactivation and 250 nM tetrodotoxin (TTX) to reduce interference from TTX-sensitive sodium channels present in the cell line. Test compound, initially dissolved in dimethyl sulfoxide but further diluted in sodium free buffer, is added to achieve the final test concentration range of 100 μM-0.05 μM.
Cell plates are incubated for 30 minutes at room temperature to allow equilibration of dye and test compound. Plates are then transferred to a fluorescence plate reader for fluorescence measurement using an excitation wavelength of 530 nm whilst measuring fluorescence emission at 565 nm. […] Membrane depolarisation is registered by an increase in fluorescence emission at 565 nm.
The change in fluorescence seen in each test well upon the addition of sodium containing buffer is calculated relative to the baseline fluorescence for that well. This figure is then used for calculating the IC50 for each test compound.

T1 sequence (Q9Y5Y9 whole entry): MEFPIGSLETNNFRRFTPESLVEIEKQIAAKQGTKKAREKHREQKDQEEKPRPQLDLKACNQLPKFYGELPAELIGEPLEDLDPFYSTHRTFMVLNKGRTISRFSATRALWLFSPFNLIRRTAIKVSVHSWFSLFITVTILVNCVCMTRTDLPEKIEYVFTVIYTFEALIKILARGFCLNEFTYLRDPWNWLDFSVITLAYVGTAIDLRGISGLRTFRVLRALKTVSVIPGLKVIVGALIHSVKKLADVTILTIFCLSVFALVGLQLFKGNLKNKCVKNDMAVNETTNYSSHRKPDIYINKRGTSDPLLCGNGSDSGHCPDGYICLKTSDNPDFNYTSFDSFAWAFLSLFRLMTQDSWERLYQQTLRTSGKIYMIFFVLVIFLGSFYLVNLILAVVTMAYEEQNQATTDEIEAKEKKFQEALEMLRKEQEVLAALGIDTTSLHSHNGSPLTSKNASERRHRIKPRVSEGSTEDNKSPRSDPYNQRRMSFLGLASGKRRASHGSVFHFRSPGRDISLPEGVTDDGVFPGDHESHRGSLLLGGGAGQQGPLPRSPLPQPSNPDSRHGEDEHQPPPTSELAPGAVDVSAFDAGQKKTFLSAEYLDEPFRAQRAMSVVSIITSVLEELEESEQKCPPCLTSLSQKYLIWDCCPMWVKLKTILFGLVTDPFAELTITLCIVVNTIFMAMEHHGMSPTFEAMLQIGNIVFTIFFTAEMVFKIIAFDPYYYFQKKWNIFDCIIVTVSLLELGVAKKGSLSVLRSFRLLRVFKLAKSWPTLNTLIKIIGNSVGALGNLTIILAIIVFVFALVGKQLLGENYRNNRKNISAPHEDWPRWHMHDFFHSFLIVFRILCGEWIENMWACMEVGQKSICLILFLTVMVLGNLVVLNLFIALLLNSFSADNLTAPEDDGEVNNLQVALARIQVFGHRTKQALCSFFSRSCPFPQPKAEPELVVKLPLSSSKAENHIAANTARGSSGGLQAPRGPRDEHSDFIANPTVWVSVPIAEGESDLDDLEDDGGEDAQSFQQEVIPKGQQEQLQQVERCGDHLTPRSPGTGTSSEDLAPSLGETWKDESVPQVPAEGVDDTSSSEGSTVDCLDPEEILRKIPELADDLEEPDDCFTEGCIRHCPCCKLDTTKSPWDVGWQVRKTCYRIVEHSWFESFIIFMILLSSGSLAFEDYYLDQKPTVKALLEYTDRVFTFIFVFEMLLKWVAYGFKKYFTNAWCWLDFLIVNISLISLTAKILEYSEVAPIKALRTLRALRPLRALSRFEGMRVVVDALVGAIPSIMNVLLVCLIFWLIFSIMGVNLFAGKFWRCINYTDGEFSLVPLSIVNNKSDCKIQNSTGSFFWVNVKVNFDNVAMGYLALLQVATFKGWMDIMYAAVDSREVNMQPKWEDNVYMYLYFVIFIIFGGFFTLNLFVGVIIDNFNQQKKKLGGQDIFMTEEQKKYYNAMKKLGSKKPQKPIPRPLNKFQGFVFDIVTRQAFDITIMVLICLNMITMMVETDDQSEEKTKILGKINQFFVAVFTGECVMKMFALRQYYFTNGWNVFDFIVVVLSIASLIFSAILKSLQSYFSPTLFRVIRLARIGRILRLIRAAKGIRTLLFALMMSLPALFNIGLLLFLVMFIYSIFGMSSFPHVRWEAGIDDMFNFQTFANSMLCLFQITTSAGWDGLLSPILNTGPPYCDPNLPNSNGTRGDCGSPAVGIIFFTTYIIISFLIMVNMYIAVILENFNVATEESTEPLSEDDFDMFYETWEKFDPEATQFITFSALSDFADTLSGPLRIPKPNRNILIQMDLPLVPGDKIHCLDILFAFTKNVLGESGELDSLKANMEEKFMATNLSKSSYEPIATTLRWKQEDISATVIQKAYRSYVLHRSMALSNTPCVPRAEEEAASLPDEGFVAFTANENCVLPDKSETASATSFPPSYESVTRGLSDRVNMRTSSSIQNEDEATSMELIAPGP

Row | SMILES | IC50
1 | O=C(Nc1ccc(Oc2ccc(F)cc2)cc1)N1CC(NC2CCc3cc(Cl)ccc32)C1 (stereo not shown) [Example 18, 3-(5-Chloro-indan-1-ylamino)-azetidine-1-carboxylic acid [4-(4-fluoro-phenoxy)-phenyl]-amide] | 620 nM
2 | O=C(Nc1ccc(Oc2ccc(F)cc2)cc1)N1CC(NC2CCCc3ccccc32)C1 (stereo not shown) [Example 19, 3-(1,2,3,4-Tetrahydro-naphthalen-1-ylamino)-azetidine-1-carboxylic acid [4-(4-fluoro-phenoxy)-phenyl]-amide] | 190 nM
3 | CN(C(=O)N1CC(NC2CCc3cc(F)ccc32)C1)c1ccc(Oc2ccc(F)cc2)cc1 (stereo not shown) [Example 20, 3-(5-Fluoro-indan-1-ylamino)-azetidine-1-carboxylic acid [4-(4-fluoro-phenoxy)-phenyl]-methyl-amide] | 700 nM
4 | COc1ccc2c(c1)CCC2NC1CN(C(=O)Nc2ccc(Oc3ccc(F)cc3)cc2)C1 (stereo not shown) [Example 21, 3-(5-Methoxy-indan-1-ylamino)-azetidine-1-carboxylic acid [4-(4-fluoro-phenoxy)-phenyl]-amide] | 310 nM
5 | O=C(Nc1ccc(C(F)(F)F)cc1)N1CC(NC2CCc3cc(F)ccc32)C1 (stereo not shown) [Example 22, 3-(5-Fluoro-indan-1-ylamino)-azetidine-1-carboxylic acid (4-trifluoromethyl-phenyl)-amide] | 3110 nM
6 | O=C(Nc1cccc(C(F)(F)F)c1)N1CC(NC2CCc3cc(F)ccc32)C1 (stereo not shown) [Example 24, 3-(5-Fluoro-indan-1-ylamino)-azetidine-1-carboxylic acid (3-trifluoromethyl-phenyl)-amide] | 2680 nM
7 | CC1Cc2ccccc2C1NC1CN(C(=O)Nc2ccc(Oc3ccccc3)cc2)C1 (stereo not shown) [Example 25, 3-(2-Methyl-indan-1-ylamino)-azetidine-1-carboxylic acid (4-phenoxy-phenyl)-amide] | 840 nM
8 | CC1CC(NC2CN(C(=O)Nc3ccc(Oc4ccccc4)cc3)C2)c2ccccc21 (stereo not shown) [Example 26, 3-(3-Methyl-indan-1-ylamino)-azetidine-1-carboxylic acid (4-phenoxy-phenyl)-amide] | 240 nM
9 | O=C(Nc1ccc(Oc2ccccc2)cc1)N1CC(NC2CCc3cc(F)ccc32)C1 (stereo not shown) [Example 27, 3-(5-Fluoro-indan-1-ylamino)-azetidine-1-carboxylic acid (4-phenoxy-phenyl)-amide] | 270 nM
10 | O=C(Nc1cccc(Oc2ccccc2)c1)N1CC(NC2CCc3cc(F)ccc32)C1 (stereo not shown) [Example 28, 3-(5-Fluoro-indan-1-ylamino)-azetidine-1-carboxylic acid (3-phenoxy-phenyl)-amide] | 430 nM
11 | CN(C1CN(C(=O)Nc2cccc(Oc3ccccc3)c2)C1)C1CCc2cc(F)ccc21 (stereo not shown) [Example 29, 3-[(5-Fluoro-indan-1-yl)-methyl-amino]-azetidine-1-carboxylic acid (3-phenoxy-phenyl)-amide] | 420 nM
12 | O=C(Nc1ccc(Oc2ccccc2)cc1)N1CC(NC2CCc3ccccc32)C1 (stereo not shown) [Example 30, 3-(Indan-1-ylamino)-azetidine-1-carboxylic acid (4-phenoxy-phenyl)-amide] | 260 nM
13 | O=C(c1ccccc1)c1ccc(NC(=O)N2CC(NC3CCc4cc(F)ccc43)C2)cc1 (stereo not shown) [Example 31, 3-(5-Fluoro-indan-1-ylamino)-azetidine-1-carboxylic acid (4-benzoyl-phenyl)-amide] | 7250 nM
14 | O=C(Nc1ccc(C(F)(F)F)cc1)N1CC(NC2CCc3ccccc3C2)C1 (stereo not shown) [Example 32, 3-(1,2,3,4-Tetrahydro-naphthalen-2-ylamino)-azetidine-1-carboxylic acid (4-trifluoromethyl-phenyl)-amide] | 450 nM
15 | O=C(Nc1ccc(C(F)(F)F)cc1)N1CC(NC2CCc3cc(O)ccc32)C1 (stereo not shown) [Example 33, 3-(5-Hydroxy-indan-1-ylamino)-azetidine-1-carboxylic acid (4-trifluoromethyl-phenyl)-amide] | 11500 nM
16 | O=C(Nc1ccc(Oc2ccccc2)cc1)N1CC(NC2CCc3ccccc3C2)C1 (stereo not shown) [Example 34, 3-(1,2,3,4-Tetrahydro-naphthalen-2-ylamino)-azetidine-1-carboxylic acid (4-phenoxy-phenyl)-amide] | 100 nM
17 | O=C(Nc1ccc(C(F)(F)F)cc1)N1CC(NC2CCc3cc(F)ccc3C2)C1 (stereo not shown) [Example 35, 3-(6-Fluoro-1,2,3,4-tetrahydro-naphthalen-2-ylamino)-azetidine-1-carboxylic acid (4-trifluoromethyl-phenyl)-amide] | 1310 nM

Row | SMILES | IC50
18 | O=C(Nc1ccc(C(F)(F)F)cc1)N1CC(NC2CCCc3ccccc32)C1 (stereo not shown) [Example 36, 3-(1,2,3,4-Tetrahydro-naphthalen-1-ylamino)-azetidine-1-carboxylic acid (4-trifluoromethyl-phenyl)-amide] | 2770 nM
19 | CN(C1CN(C(=O)Nc2ccc(Oc3ccc(F)cc3)cc2)C1)C1CCc2cc(F)ccc21 (stereo not shown) [Example 37, 3-[(5-Fluoro-indan-1-yl)-methyl-amino]-azetidine-1-carboxylic acid [4-(4-fluoro-phenoxy)-phenyl]-amide] | 420 nM
20 | CN(C1CN(C(=O)Nc2ccc(Oc3ccccc3)cc2)C1)C1CCc2cc(F)ccc21 (stereo not shown) [Example 38, 3-[(5-Fluoro-indan-1-yl)-methyl-amino]-azetidine-1-carboxylic acid (4-phenoxy-phenyl)-amide] | 560 nM
21 | CN(C1CN(C(=O)Nc2ccc(C(F)(F)F)cc2)C1)C1CCc2cc(F)ccc21 (stereo not shown) [Example 39, 3[(5-Fluoro-indan-1-yl)-methyl-amino]-azetidine-1-carboxylic acid (4-trifluoromethyl-phenyl)-amide] | 2020 nM
22 | CN(C1CN(C(=O)Nc2cccc(C(F)(F)F)c2)C1)C1CCc2cc(F)ccc21 (stereo not shown) [Example 40, 3[(5-Fluoro-indan-1-yl)-methyl-amino]-azetidine-1-carboxylic acid (3-trifluoromethyl-phenyl)-amide] | 2300 nM
23 | CC1(NC2CCc3cc(F)ccc32)CN(C(=O)Nc2ccc(Oc3ccc(F)cc3)cc2)C1 (stereo not shown) [Example 41, 3-(5-Fluoro-indan-1-ylamino)-3-methyl-azetidine-1-carboxylic acid [4-(4-fluoro-phenoxy)-phenyl]-amide] | 560 nM
24 | CC1(NC2CCc3ccccc3C2)CN(C(=O)Nc2ccc(C(F)(F)F)cc2)C1 (stereo not shown) [Example 42, 3-Methyl-3-(1,2,3,4-tetrahydro-naphthalen-2-ylamino)-azetidine-1-carboxylic acid (4-trifluoromethyl-phenyl)-amide] | 690 nM
25 | O=C(c1ccc(Oc2ccc(F)cc2)cc1)N1CC(NC2CCc3cc(F)ccc32)C1 (stereo not shown) [Example 43, [3-(5-Fluoro-indan-1-ylamino)-azetidin-1-yl]-[4-(4-fluoro-phenoxy)-phenyl]-methanone] | 240 nM
26 | CC(NC1CN(C(=O)c2ccc(Oc3ccccc3)cc2)C1)c1ccccc1 (stereo not shown) [Example 44, (4-Phenoxy-phenyl)-[3-(1-phenyl-ethylamino)-azetidin-1-yl]-methanone] | 730 nM
27 | O=C(Cc1ccc(Oc2ccccc2)cc1)N1CC(NC2Cc3ccccc3C2)C1 [Example 45, 1-[3-(Indan-2-ylamino)-azetidin-1-yl]-2-(4-phenoxy-phenyl)-ethanone] | 650 nM
28 | CC(NC1CN(C(=O)Cc2ccc(Oc3ccccc3)cc2)C1)c1ccccc1 (stereo not shown) [Example 46, 2-(4-Phenoxy-phenyl)-1-[3-(1-phenyl-ethylamino)-azetidin-1-yl]-ethanone] | 1070 nM
29 | O=C(Cc1ccc(Oc2ccccc2)cc1)N1CC(NC2CCc3cc(F)ccc32)C1 (stereo not shown) [Example 47, 1-[3-(5-Fluoro-indan-1-ylamino)-azetidin-1-yl]-2-(4-phenoxy-phenyl)-ethanone] | 1660 nM
30 | O=C(Cc1ccc(Oc2ccc(F)cc2)cc1)N1CC(NC2CCc3cc(F)ccc32)C1 (stereo not shown) [Example 48, 1-[3-(5-Fluoro-indan-1-ylamino)-azetidin-1-yl]-2-[4-(4-fluoro-phenoxy)-phenyl]-ethanone] | 690 nM
31 | O=C(Cc1ccc(Oc2ccc(F)cc2)cc1)N1CC(NC2Cc3ccccc3C2)C1 [Example 49, 2-[4-(4-Fluoro-phenoxy)-phenyl]-1-[3-(indan-2-ylamino)-azetidin-1-yl]-ethanone] | 430 nM
32 | O=C(Cc1ccc(Oc2ccc(F)cc2)cc1)N1CC(NC2Cc3ccc(F)cc3C2)C1 (stereo not shown) [Example 50, 1-[3-(5-Fluoro-indan-2-ylamino)-azetidin-1-yl]-2-[4-(4-fluoro-phenoxy)-phenyl]-ethanone] | 780 nM
33 | C=CCOc1ccccc1CNC1CN(C(=O)Nc2ccc(OCc3ccccc3)cc2)C1 [Example 51, 3-(2-Allyloxy-benzylamino)-azetidine-1-carboxylic acid (4-benzyloxy-phenyl)-amide] | 340 nM
34 | O=C(Nc1ccc(OCc2ccccc2)cc1)N1CC(NCc2c(F)cccc2F)C1 [Example 52, 3-(2,6-Difluoro-benzylamino)-azetidine-1-carboxylic acid (4-benzyloxy-phenyl)-amide] | 870 nM
